Source: patent US9376492B2, “Treatment of cancer” (Asclepiumm Limited, priority 2009, dated 2016)
Entries after “also recorded” stand apart in the source; their conditions may differ.

What was measured:
[1] = system: MDCK cells; test: Blocking EMT assay (HGF/SF-induced EMT); type: cell-based; settings: 2.5 ng/ml HGF/SF, 24 h
Method: Blocking EMT Assay: Antibodies or peptides were added to 10% sub-confluent MDCK cells cultured in standard medium with 2.5 ng/ml HGF/SF in 96-well plates for 24 h. EMT was induced by HGF/SF in MDCK cells without any antibody or peptide treatment. The effects of different antibodies and peptides in blocking EMT were investigated by adding different concentrations of them to 10% sub-confluent MDCK cells cultured in standard medium with 2.5 ng/ml HGF/SF.

[2] = system: human breast cancer MCF7 cells; test: Cell invasion assay (Matrigel), MCF7; type: cell-based; settings: human breast cancer MCF7 cells in Matrigel
Method: Cell Invasion Assay: Growth Factor-Reduced Matrigel™ Matrix (BD, Becton Dickinson Biosciences, Bedford, Mass., USA) was thawed in the fridge one day prior to its use. The Matrigel matrix was mixed by pre-cooled pipettes to homogeneity on ice. Four μl of the cell suspension (1×10^6 cells/ml) in standard medium without (Control) or with 1 μl different concentrations of antibody or peptide was mixed with 95 μl of Matrigel matrix in a cold Eppendorf tube. After thorough mixing using cooled pipettes, 30 μl of the cells in the Matrigel mixture was added to 48-well plates. The plates were incubated at 37° C. in a CO2 incubator for 1 h to polymerize the droplet mixtures. 250 μl of standard medium was added to cover the cell/Matrigel droplet and incubated for several days. Blindly-selected cell invasion images were recorded in four areas within a cell/Matrigel droplet by a Nikon 4500 Coolpix digital camera under the microscope.

Row | Sequence | inhibition of EMT [1] | inhibition of cell invasion ability [2]
1 | KINATDADEPNTLNSKISYR (listed as Homo sapiens) [Peptide 4] | significantly blocked; also recorded: significantly inhibited | significantly inhibited
2 | EELSAAHTLV (listed as Homo sapiens) [Peptide 7] | significantly blocked; also recorded: significantly inhibited | significantly inhibited
